“Also recorded” adds a separate entry of the source. Read-outs that look alike come from different tables or passages of the source.
Legend:
Lmna^H222P/H222P mice [1] = assay: Cardiac fibrosis score; format: in vivo
Lmna^H222P/H222P mice [2] = format: in vivo; details: 6 weeks
Lmna^H222P/H222P mice [3] = assay: Forelimb grip fatigue index; format: in vivo; details: 6 mg/kg/day
[4] = system: ERK1/2 phosphorylation in HEK-293 cells; assay: Phosphorylated ERK1/2 immunoblot in cultured HEK-293 cells; format: cell-based; details: 1 µM to 0.001 µM, 24 h
Lmna^H222P/H222P mice [5] = format: in vivo; details: for Amylase (serum): 6 weeks, mean ± standard error, n = 10
Lmna^H222P/H222P mice [6] = assay: Histology of quadriceps muscle; format: in vivo; details: placebo 3 of 6
Lmna^H222P/H222P mice [7] = assay: Serum creatine phosphokinase activity; format: in vivo
HT-29 cells = assay: Anti-proliferative activity on HT-29 cells; format: cell-based; details: HT-29 anti-proliferative IC50
ERK1/2 phosphorylation = assay: Phosphorylated ERK1/2 relative to total ERK1/2 in tissues of treated mice; format: in vivo, Lmna^H222P/H222P mice; details: six weeks
Lmna^H222P/H222P mice [8] = assay: Quantitative real-time RT-PCR of Nppa and Myl7 mRNA in hearts; format: in vivo
Lmna^H222P/H222P mice [9] = details: cited from earlier work

With `O=S1(=O)Nc2c(cc(F)c(F)c2Nc2ccc(I)cc2F)OCC(O)C(O)CC12CC2` (stereo not drawn) [compound 8] the “cardiac fibrosis score (grade 0-4) compared to placebo” value (Lmna^H222P/H222P mice [1]; 3 mg/kg/day) was “statistically significant decreases in fibrosis”, the “cardiac fibrosis score (grade 0-4) compared to placebo” value (Lmna^H222P/H222P mice [1]; 6 mg/kg/day) was “statistically significant decreases in fibrosis” and the “Kidney histology, individual sample” value (Lmna^H222P/H222P mice [2]; 3 mg/kg/day) was “Normal”. For the same compound, the “Liver histology, individual sample” value (Lmna^H222P/H222P mice [2]; 3 mg/kg/day) was “Normal; also recorded: Slightly greater vacuolation in some zones; similar to 7606 but milder; could be preparation artifact”, the “Spleen histology, individual sample” value (Lmna^H222P/H222P mice [2]; 3 mg/kg/day) was “Mildly increased number of hemosiderin-laden macrophages suggestive of old hemorrhage Somewhere; also recorded: Normal (hemosiderin-laden macrophages present but at approximately normal levels)” and the “Kidney histology, individual sample” value (Lmna^H222P/H222P mice [2]; 6 mg/kg/day) was “Some lymphocytic inflammation around the renal pelvis (around the ureter) and occasional medium-sized arteries; more inflammation than 7623 and 7622; also recorded: Mostly normal but some mild lymphocytic inflammation around small arteries with occasional hemosiderin-laden macrophages”. For the same compound, the “Liver histology, individual sample” value (Lmna^H222P/H222P mice [2]; 6 mg/kg/day) was “Occasional hemosiderin laden macrophages. Some portal triads have mild lymphocytic inflammation; significance uncertain; also recorded: Normal; also recorded: Some intracellular vacuolation in some zones; similar to 7612; could be preparation artifact”, the “Spleen histology, individual sample” value (Lmna^H222P/H222P mice [2]; 6 mg/kg/day) was “Area of necrosis consistent with splenic infarct; moderately increased number of hemosiderin-laden macrophages suggestive of hemorrhage old somewhere; also recorded: Normal” and the “liver, kidney or spleen histopathology, overall” value (Lmna^H222P/H222P mice [2]; 3 or 6 mg/kg/day) was “no consistent or specific abnormalities in liver, kidney or spleen histopathology”. For the same compound, the “forelimb grip fatigue index compared to placebo” value (Lmna^H222P/H222P mice [3]) was “significantly reduced”, the ERK1/2 phosphorylation [4] was “essentially abolished ERK1/2 phosphorylation” and the “Amylase (serum)” value (Lmna^H222P/H222P mice [5]; 3 mg/kg/day) was 1,372 ± 282.9 U/L. For the same compound, the “Amylase (serum)” value (Lmna^H222P/H222P mice [5]; 6 mg/kg/day) was 1,086 ± 40.18 U/L, the “liver, kidney or pancreatic toxicity by serum chemistry” value (Lmna^H222P/H222P mice [5]; 6 weeks of treatment at a dose up to 6 mg/kg/day) was “did not produce significant liver, kidney or pancreatic toxicity” and the “quadriceps samples with internally nucleated fibers” value (Lmna^H222P/H222P mice [6]; 3 mg/kg/day) was 1 of 5. For the same compound, the “quadriceps samples with internally nucleated fibers” value (Lmna^H222P/H222P mice [6]; 6 mg/kg/day) was 0 of 5, the “serum creatine phosphokinase activity compared to placebo” value (Lmna^H222P/H222P mice [7]; 3 mg/kg/day) was “but not 3 mg/kg/day of 8 significantly reduced” and the “serum creatine phosphokinase activity compared to placebo” value (Lmna^H222P/H222P mice [7]; 6 mg/kg/day) was “significantly reduced”. The “potency of fast moving isomer compared to the slow moving one” value (HT-29 cells) was “approximately 25 fold”, the “phosphorylated ERK1/2 relative to total ERK1/2 in heart” value (ERK1/2 phosphorylation; 3 mg/kg/day oral gavage) was “significant decreases” and the “phosphorylated ERK1/2 relative to total ERK1/2 in liver” value (ERK1/2 phosphorylation; 3 mg/kg/day oral gavage) was “significant decreases”. The “phosphorylated ERK1/2 relative to total ERK1/2 in quadriceps muscle” value (ERK1/2 phosphorylation; 3 mg/kg/day oral gavage) was “only the higher dose produced a significant decrease”, the “phosphorylated ERK1/2 relative to total ERK1/2 in heart” value (ERK1/2 phosphorylation; 6 mg/kg/day oral gavage) was “significant decreases” and the “phosphorylated ERK1/2 relative to total ERK1/2 in liver” value (ERK1/2 phosphorylation; 6 mg/kg/day oral gavage) was “significant decreases”. For the same compound, the “phosphorylated ERK1/2 relative to total ERK1/2 in quadriceps muscle” value (ERK1/2 phosphorylation; 6 mg/kg/day oral gavage) was “significant decrease”, the “cardiac Nppa mRNA compared to placebo” value (Lmna^H222P/H222P mice [8]; 3 mg/kg/day) was “significantly reduced” and the “cardiac Myl7 mRNA compared to placebo” value (Lmna^H222P/H222P mice [8]; 6 mg/kg/day) was “significantly decreased”. The “cardiac Nppa mRNA compared to placebo” value (Lmna^H222P/H222P mice [8]; 6 mg/kg/day) was “significantly reduced”.

In the case of `COc1cccc(-c2cc(=O)c3ccccc3o2)c1N` [PD98059], the “effect on left ventricular and skeletal muscle function and survival” value (Lmna^H222P/H222P mice [9]) is given as “beneficial effect on left ventricular and skeletal muscle function and prolongs survivial”.

For `Cn1cnc2c(F)c(Nc3ccc(Br)cc3Cl)c(C(=O)NOCCO)cc21` [selumetinib], the “effect on left ventricular and skeletal muscle function and survival” value (Lmna^H222P/H222P mice [9]) is listed as “beneficial effect on left ventricular and skeletal muscle function and prolongs survivial”.

Reference: paper PMC5291759 (Bioorganic & medicinal chemistry, 2016)
